Experimental data from patent US20170151226A1, “Treatment of Breast Cancer with Liposomal Irinotecan” (priority 2014, published 2017).

Tests used:
[1] = 5-day regimen; cited from earlier work
[2] = tested on: TNBC LM2-4-luc cells; assay: TNBC LM2-4 mouse model of spontaneous metastasis; type: in vivo, SCID mice; conditions: nal-IRI 10 mg/kg salt, nonliposomal irinotecan 50 mg/kg salt, IV every 7 days
Source text: 42 female SCID mice were inoculated with TNBC LM2-4-luc cells in their lower right inguinal mammary fat pad. […] Post primary tumor resection, bioluminescence imaging (BLI), (BLI, Xenogen, Perkin Elmer) was used to monitor metastasis formulation. […] Animals were monitored 2-3 times per week using BLI and at the study endpoint using a 1T MRI (M3, Aspect Imaging).

Structure (SMILES)	Maximum tolerated dose [1]	Metastatic burden, median bioluminescence flux ([2]; day 12)	Median survival [2] [days]
C[C@@H](O)[C@@H]1NC(=O)[C@H](CCCCN)NC(=O)[C@@H](Cc2c[nH]c3ccccc23)NC(=O)[C@H](Cc2ccccc2)NC(=O)[C@@H](NC(=O)[C@H](N)Cc2ccccc2)CSSC[C@@H](C(=O)N[C@H](CO)[C@@H](C)O)NC1=O [octreotide]	2000 micrograms three times daily		
CCc1c2c(nc3ccc(OC(=O)N4CCC(N5CCCCC5)CC4)cc13)-c1cc3c(c(=O)n1C2)COC(=O)[C@]3(O)CC [irinotecan]		2.1×10^9	14
